For series [1], the target named is T1, HAase (Homo sapiens, UniProt P38567).
T1 construct: made in house
T1 sequence (P38567 36-482): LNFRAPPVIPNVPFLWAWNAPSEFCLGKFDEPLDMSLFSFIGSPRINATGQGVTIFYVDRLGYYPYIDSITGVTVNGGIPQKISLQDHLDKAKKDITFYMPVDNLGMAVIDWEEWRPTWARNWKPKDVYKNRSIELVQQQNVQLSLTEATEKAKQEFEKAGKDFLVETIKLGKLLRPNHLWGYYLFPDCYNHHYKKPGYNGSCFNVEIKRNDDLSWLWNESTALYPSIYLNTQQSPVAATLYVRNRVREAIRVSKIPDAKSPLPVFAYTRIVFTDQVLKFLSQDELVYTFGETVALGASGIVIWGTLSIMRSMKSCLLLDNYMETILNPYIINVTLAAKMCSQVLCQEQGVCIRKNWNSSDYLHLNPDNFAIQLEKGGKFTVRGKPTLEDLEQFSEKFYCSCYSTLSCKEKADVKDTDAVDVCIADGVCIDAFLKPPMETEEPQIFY
The experiment in a line: Compatibility study of HAase and antibiotic in solution: HAase activity. It is filed as biochemical. The note with it: antibiotic 50,000 units/ml in physiological saline; HAase added to 150 units/ml; 15 min room temperature.

Series [2] can be described thus: Compatibility study of HAase and antibiotic in solution: appearance of the solution. It is filed as physicochemical. The note with it: 8 solutions of antibiotic (two concentrations) with HAase 150-6000 units/ml in physiological saline. The procedure: (§1) The compatibility of HAase and an antibiotic was studied by preparing a solution comprising the two substances. A dry Meropenem power for injection was dissolved in physiological saline to give a concentration of 5 mg/ml and 50 mg/ml, and then HAase was added to give a final concentration of 150, 500, 2000, and 6000 units/ml respectively. After preparation, the solution was left to stand at room temperature for 15 min. The appearance of the solution was observed, and the concentration of HAase was determined.
(§2) The compatibility of HAase and an antibiotic was studied by preparing a solution comprising the two substances. A dry Ceftriaxone sodium power for injection was dissolved in physiological saline to give a concentration of 50 mg/ml and 250 mg/ml, and then HAase was added to give a final concentration of 150, 500, 2000, and 6000 units/ml respectively. After preparation, the solution was left to stand at room temperature for 15 min. The appearance of the solution was observed, and the concentration of HAase was determined.
(§3) The compatibility of HAase and an antibiotic was studied by preparing a solution comprising the two substances. A dry Azithromycin power for injection was dissolved in physiological saline to give a concentration of 10 mg/ml and 100 mg/ml, and then HAase was added to give a final concentration of 150, 500, 2000, and 6000 units/ml respectively. After preparation, the solution was left to stand at room temperature for 15 min. The appearance of the solution was observed, and the concentration of HAase was determined.
(§4) The compatibility of HAase and an antibiotic was studied by preparing a solution comprising the two substances. A dry Cefradine powder for injection was dissolved in physiological saline to give a concentration of 50 mg/ml and 250 mg/ml, and then HAase was added to give a final concentration of 150, 500, 2000, and 6000 units/ml respectively. After preparation, the solution was left to stand at room temperature for 15 min. The appearance of the solution was observed, and the concentration of HAase was determined.
(§5) The compatibility of HAase and an antibiotic was studied by preparing a solution comprising the two substances. A dry Teicoplanin powder for injection was dissolved in physiological saline to give a concentration of 10 mg/ml and 70 mg/ml, and then HAase was added to give a final concentration of 150, 500, 2000, and 6000 units/ml respectively. After preparation, the solution was left to stand at room temperature for 15 min. The appearance of the solution was observed, and the concentration of HAase was determined.
The compatibility of HAase and an antibiotic was studied by preparing a solution comprising the two substances. A dry Ceftazidime powder for injection was dissolved in physiological saline to give a concentration of 20 mg/ml and 200 mg/ml, and then HAase was added to give a final concentration of 150, 500, 2000, and 6000 units/ml respectively. After preparation, the solution was left to stand at room temperature for 15 min. The appearance of the solution was observed, and the concentration of HAase was determined.
The compatibility of HAase and an antibiotic was studied by preparing a solution comprising the two substances. A dry Ertapenem power for injection was dissolved in physiological saline to give a concentration of 30 mg/ml and 300 mg/ml, and then HAase was added to give a final concentration of 150, 500, 2000, and 6000 units/ml respectively. After preparation, the solution was left to stand at room temperature for 15 min. The appearance of the solution was observed, and the concentration of HAase was determined.
The compatibility of HAase and an antibiotic was studied by preparing a solution comprising the two substances. A dry Polymyxin B powder for injection was dissolved in physiological saline to give a concentration of 50,000 units/ml and 250,000 units/ml, and then HAase was added to give a final concentration of 150, 500, 2000, and 6000 units/ml respectively.

For series [3], the target named is T1, HAase. The experiment in a line: Compatibility study of HAase and antibiotic in solution: HAase activity. It is filed as biochemical. To be noted: 15 min room temperature; for Final concentration of HAase (units/ml) 500: HAase added to 500 units/ml; for Final concentration of HAase (units/ml) 2000: HAase added to 2000 units/ml; for Final concentration of HAase (units/ml) 6000: HAase added to 6000 units/ml; for Final concentration of HAase (units/ml) 150: HAase added to 150 units/ml; for interference with the activity of HAase: antibiotic and HAase in physiological saline. Here is the method:
“HAase activity refers to the ability of HAase to catalytically cleave hyaluronic acid. The Chinese Pharmacopoeia provides a method for determining the HAase activity, indirectly by measuring the amount of remaining higher-molecular-weight hyaluronic acid substrate after the enzyme is allowed to catalytically cleave hyaluronic acid at 37° C. for 30 min. A standard reference solution can be used in the assay to determine the relative activity (in units) of any HAase. In-vitro assays for the determination of HAase are known in the art. Exemplary assays include micro-turbidimetric assay described below, which indirectly measures the cleavage of hyaluronic acid by HAase by detecting an insoluble precipitate formed when uncleaved hyaluronic acid binds to serum albumin. The reference standard can be used, for example, to generate a standard curve, so as to determine the activity of the tested HAase in units.
as §1, §2, §3, §4, §5
The compatibility of HAase and an antibiotic was studied by preparing a solution comprising the two substances. A dry Ceftazidime powder for injection was dissolved in physiological saline to give a concentration of 20 mg/ml and 200 mg/ml, and then HAase was added to give a final concentration of 150, 500, 2000, and 6000 units/ml respectively. After preparation, the solution was left to stand at room temperature for 15 min.

Where [4] appears, read: antibiotic 50,000 units/ml in physiological saline.
[5] abbreviates: antibiotic 250,000 units/ml in physiological saline.
[6] abbreviates: antibiotic 5 mg/ml in physiological saline.
The mark [7] stands for this setting: antibiotic 50 mg/ml in physiological saline.
[8] abbreviates: antibiotic 10 mg/ml in physiological saline.
[9] abbreviates: antibiotic 100 mg/ml in physiological saline.

This note sets out measurements from patent publication US20250099557A1, “ANTIBIOTIC PHARMACEUTICAL COMPOSITION CAPABLE OF SUBCUTANEOUS ADMINISTRATION” (SHANGHAI BAO PHARMACEUTICALS CO., LTD., priority 2021, published 2025).

For the compound Polymyxin B, the “Final concentration of HAase (units/ml) 150” value in series [1] is 149 units/ml. Further, the “appearance of the solution” value in series [2] is “clear and transparent”. Further, in series [3] (setting [4]), the “Final concentration of HAase (units/ml) 500” value is 488 units/ml, the “Final concentration of HAase (units/ml) 2000” value is reported as 2126 units/ml and the “Final concentration of HAase (units/ml) 6000” value amounted to 5899 units/ml. In addition, in series [3] (setting [5]), the “Final concentration of HAase (units/ml) 150” value was determined as 151 units/ml, the “Final concentration of HAase (units/ml) 500” value is reported as 501 units/ml, the “Final concentration of HAase (units/ml) 2000” value came out at 2014 units/ml and the “Final concentration of HAase (units/ml) 6000” value is listed as 6090 units/ml. In series [3], the “interference with the activity of HAase” value is recorded as “does not interfere with the activity of HAase”.

Turning to `C[C@@H](O)[C@H]1C(=O)N2C(C(=O)O)=C(S[C@@H]3CN[C@H](C(=O)N(C)C)C3)[C@H](C)[C@H]12` [Meropenem], the “appearance of the solution” value in series [2] was “clear and transparent”. In series [3] (setting [6]), the “Final concentration of HAase (units/ml) 150” value was 150 units/ml, the “Final concentration of HAase (units/ml) 500” value is given as 511 units/ml, the “Final concentration of HAase (units/ml) 2000” value is recorded as 1979 units/ml and the “Final concentration of HAase (units/ml) 6000” value is given as 6271 units/ml. In addition, in series [3] (setting [7]), the “Final concentration of HAase (units/ml) 150” value was 145 units/ml, the “Final concentration of HAase (units/ml) 500” value is 491 units/ml, the “Final concentration of HAase (units/ml) 2000” value is reported as 1984 units/ml and the “Final concentration of HAase (units/ml) 6000” value turned out to be 6121 units/ml. Also, the “interference with the activity of HAase” value in series [3] is on record as “does not interfere with the activity of HAase”.

Take `CC[C@H]1OC(=O)[C@H](C)[C@@H](O[C@H]2C[C@@](C)(OC)[C@@H](O)[C@H](C)O2)[C@H](C)[C@@H](O[C@@H]2O[C@H](C)C[C@H](N(C)C)[C@H]2O)[C@](C)(O)C[C@@H](C)CN(C)[C@H](C)[C@@H](O)[C@]1(C)O` [Azithromycin]: the “appearance of the solution” value in series [2] is “clear and transparent”. Further, in series [3] (setting [8]), the “Final concentration of HAase (units/ml) 150” value is given as 152 units/ml, the “Final concentration of HAase (units/ml) 500” value is on record as 482 units/ml, the “Final concentration of HAase (units/ml) 2000” value is recorded as 1651 units/ml and the “Final concentration of HAase (units/ml) 6000” value is given as 6140 units/ml. Further, in series [3] (setting [9]), the “Final concentration of HAase (units/ml) 150” value stood at 140 units/ml, the “Final concentration of HAase (units/ml) 500” value is 500 units/ml, the “Final concentration of HAase (units/ml) 2000” value worked out at 1760 units/ml and the “Final concentration of HAase (units/ml) 6000” value amounted to 5818 units/ml. Besides, the “interference with the activity of HAase” value in series [3] was “does not interfere with the activity of HAase”.
